Assay results published in patent US20030219764A1, “Biological discovery using gene regulatory networks generated from multiple-disruption expression libraries” (priority 2001, published 2003).

Assays:
CIK1 = experiment: Boolean network analysis of joint drug response and gene disruption expression matrices (virtual gene); assay type: cell-based, Saccharomyces cerevisiae
Text: In addition to the Boolean methods for gene disruption experiments reported elsewhere^(11), we created a gene expression matrix E from a set of the drug treatment experiments combined with disruptant expression data. In the case of drug generated perturbation, we created a “virtual” gene to represent the drug affect analogous to a gene disruption. We then were able to use standard disruption matrix algorithms designed for disruption based data.
In YPD, 314 genes were defined as “transcription factors”, and 98 of these have previously been studied for control mechanism. The expression profile data of 552 genes including the genes that are controlled by these 98 “transcription factors” were selected from 5871 profiles. Thus we constructed the gene regulatory network from the expression profile data set based on the values of these 552 genes in 120 gene disruption experiments and 20 drug treatment experiments.
However, the use of gene regulatory network models, combined with the drug perturbation data allows for a hierarchical gene regulatory view of the drug's interaction with genes in the transcriptome. To generate this gene network drug perturbation data, we first created a full genome expression library of 542 single-gene disruption mutants. The 120 array data selected from the library was logically joined with the array matrices generated from the Griseofulvin experiments. […]

yeast strain BY4741 = experiment: Drug response full-genome cDNA microarray gene expression experiments; assay type: cell-based, Saccharomyces cerevisiae; settings: among 552 genes which differed in expression between drug treated and normal yeast; dosages of 10, 50 and 100 mg in 10 ml of DMF; 0, 15, 30, 45 and 60 minutes
Method: The yeast strain used in this study is BY4741. To monitor the gene expression profile, cells were pre-grown at 30° C. in YPD (2% polypeptone, 1% yeast extract and 2% glucose) to mid-exponential phase and were exposed with Griseofulvin by adding it to the medium to the concentrations at 0, 10, 25, 50, and 100 mg/ml. The exposed cells were harvested at 0, 15, 30, 45 and 60 min after addition by Griseofulvin and used for RNA extraction. Total RNAs were extracted by the hot-phenol method.
We measured the quantities of 5871 mRNA species from 20 drug treated strains by cDNA microarray assay. A difference in fluorescent strength between Cy3, Cy5 causes bias of the expression quantity ratio. We normalized the expression quantity ratios of each expression profile. […] The logarithm value of the ratio was used to indicate the standard expression level, therefore we found the logarithm value of ratio and calculated the average and standard deviation of these log values (see table1). The Standard Deviation (SD) of expression levels of all spotted genes from the UME6 (YDR207C) disruptant expression array for which UME6 is defined as a “Global Regulator” in YPD^(33) disruptant was 0.4931, therefore we recognized that there are an unacceptable number of errors in array data whose overall SD was larger than 0.5 and eliminated such experiments from analysis. […]

[1] = system: mitotic spindle structure in yeast; experiment: Pathological and microscopic examination of Griseofulvin treated yeast versus CIK1 disrupted yeast; assay type: cell-based
Text: CIK1 codes for a protein described in the yeast proteome database (YPD) as a coiled-coil protein of the spindle pole body involved in spindle formation and the congression (nuclear migration) step of karyogamy^(13). Since the action of Griseofulvin is known to affect mitotic spindle formation, which is in agreement with the function of CIK1^(14), we performed a pathological examination of a yeast strain with a disrupted CIK1 gene and yeast affected by Griseofulvin.

[2] = system: mitotic spindle structure in fungi; settings: cited from earlier work

SMILES: COC1=CC(=O)C[C@@H](C)[C@]12Oc1c(Cl)c(OC)cc(OC)c1C2=O [Griseofulvin]
- suppression of CIK1 expression (CIK1; among the 8 first-effect genes, across the experiments): strongest suppression effects
- genes consistently and significantly suppressed as first effects (CIK1; at each time and drug concentration): 8 genes
- genes downregulated by over a 2 sigma threshold (yeast strain BY4741): 183 genes
- mitotic spindle structure compared with CIK1 deleted yeast ([1]; microscopic examination): very similar changes of the spindle body and surrounding organizational structures
- lethality to yeast ([1]; normal physiological dosage): neither the treatment with Griseofulvin at normal physiological dosage nor the disruption of CIK1 are lethal
- effect on mitotic spindle structure [2]: disrupts mitotic spindle structure in fungi to lead to metaphase arrest
